According to patent publication US20240317744A1, “Bicyclic Ureas As Kinase Inhibitors” (Incyte Corporation, priority 2023, published 2024):

Experiments:
[1] = molecular target: catalytic domain (JH1, amino acids 808-1132) of human JAK2 (Homo sapiens, UniProt O60674); assay: JAK2 HTRF Enzyme Activity Assay; type: biochemical; conditions: ATP 30 µM, 60 minutes at 25° C.; read-out: V617F ENZ 30 UM
[2] = molecular target: T1, pseudo-kinase domain (JH2, amino-acids 536-812) of human V617F mutant JAK2 (Homo sapiens, UniProt O60674, F794H/V617F/W659A/W777A); assay: JAK2 LanthaScreen JH2-V617F Binding Assay; conditions: JAK2 JH2-V617F 0.26 nM, 50 nM tracer, 1 hour at 25° C.; read-out: JH2 BIND V617F
T1 construct: pseudo-kinase domain (JH2, amino-acids 536-812 with 3 surface mutations W659A, W777A, F794H); His (C); purchased BPS Bioscience 79498; host or cells: baculovirus expression system
T1 sequence (O60674 536-812 V617F/W659A/W777A/F794H): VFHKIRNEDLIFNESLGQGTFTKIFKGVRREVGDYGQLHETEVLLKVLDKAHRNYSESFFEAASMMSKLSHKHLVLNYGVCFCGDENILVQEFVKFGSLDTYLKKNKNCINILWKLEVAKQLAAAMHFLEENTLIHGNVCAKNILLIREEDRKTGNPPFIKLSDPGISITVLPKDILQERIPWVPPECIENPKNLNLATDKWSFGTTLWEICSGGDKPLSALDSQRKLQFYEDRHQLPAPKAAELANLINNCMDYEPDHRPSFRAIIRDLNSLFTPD
Protocol: Example C. JAK2 LanthaScreen JH2-V617F Binding Assay
JAK2 JH2-V617F binding assay utilizes pseudo-kinase domain (JH2, amino-acids 536-812 with 3 surface mutations W659A, W777A, F794H) of human V617F mutant JAK2 expressed as C-terminal His-Avi-tagged, biotinylated protein in a baculovirus expression system (BPS Bioscience, Catalog #79498). The assay was conducted in black 384-well polystyrene plates in a final reaction volume of 20 μL. JAK2 JH2-V617F (0.26 nM) was incubated with compounds (100 nL serially diluted in DMSO) in the presence of 50 nM Fluorescent JAK2-JH2 Tracer (MedChem Express Catalog #HY-102055) and 0.25 nM Streptavidin-Tb cryptate (Cisbio Part #610SATLB) in assay buffer (50 mM Tris, pH=7.5, 10 mM MgCl2, 0.01% Brij-35, 0.1% BSA, 1 mM EGTA, 5% Glycerol and 5 mM DTT). Non-specific binding was accessed in the presence of 2 mM ATP. After incubation for 1 hour at 25° C., LanthaScreen signals were read on a PHERAstar FS plate reader (BMG LABTECH). Data was analyzed with IDBS XLfit and GraphPad Prism 5.0 software using a four parameter dose response curve to determine IC50 for each compound.

Sequence of catalytic domain (JH1, amino acids 808-1132) of human JAK2 (O60674 808-1132 limits assumed): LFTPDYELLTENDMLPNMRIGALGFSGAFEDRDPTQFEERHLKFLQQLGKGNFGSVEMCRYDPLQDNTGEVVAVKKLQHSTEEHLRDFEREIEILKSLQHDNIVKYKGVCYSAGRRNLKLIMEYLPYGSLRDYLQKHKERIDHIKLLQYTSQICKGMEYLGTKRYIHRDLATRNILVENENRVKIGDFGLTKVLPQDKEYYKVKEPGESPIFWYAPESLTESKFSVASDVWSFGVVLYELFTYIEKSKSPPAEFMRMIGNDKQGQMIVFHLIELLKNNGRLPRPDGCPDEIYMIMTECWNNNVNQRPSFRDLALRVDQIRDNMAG

SMILES | IC50 [1] [nM] | IC50 [2] [nM]
[2H]C1(NC(=O)OC)CC[C@@H](n2c(=O)n(C([2H])([2H])[2H])c3cnc(Nc4ccc5c(n4)c(-c4cnn(C(F)(F)F)c4)nn5C4CCOCC4)cc32)C1 (stereo partly drawn) [Example 132, Methyl ((3R)-3-(3-(methyl-d3)-2-oxo-6-((1-(tetrahydro-2H-pyran-4-yl)-3-(1-(trifluoromethyl)-1H-pyrazol-4-yl)-1H-pyrazolo[4,3-b]pyridin-5-yl)amino)-2,3-dihydro-1H-imidazo[4,5-c]pyridin-1-yl)cyclopentyl-1-d)carbamate] | > 1000 | ≤ 10
[2H]C1(NC(=O)OC)CC[C@@H](n2c(=O)n(C([2H])([2H])[2H])c3cnc(Nc4ccc5c(n4)c(-c4cnn(C(F)(F)F)c4)nn5CC4(C#N)CC4)cc32)C1 (stereo partly drawn) [Example 133, Methyl ((3R)-3-(6-((1-((1-cyanocyclopropyl)methyl)-3-(1-(trifluoromethyl)-1H-pyrazol-4-yl)-1H-pyrazolo[4,3-b]pyridin-5-yl)amino)-3-(methyl-d3)-2-oxo-2,3-dihydro-1H-imidazo[4,5-c]pyridin-1-yl)cyclopentyl-1-d)carbamate] | > 1000 | ≤ 10
[2H]C1(NC(=O)OC)CC[C@@H](n2c(=O)n(C([2H])([2H])[2H])c3cnc(Nc4ccc5nn(CC6(C#N)CC6)c(-c6cnn(C(F)(F)F)c6)c5n4)cc32)C1 (stereo partly drawn) [Example 134, Methyl ((3R)-3-(6-((2-((1-cyanocyclopropyl)methyl)-3-(1-(trifluoromethyl)-1H-pyrazol-4-yl)-2H-pyrazolo[4,3-b]pyridin-5-yl)amino)-3-(methyl-d3)-2-oxo-2,3-dihydro-1H-imidazo[4,5-c]pyridin-1-yl)cyclopentyl-1-d)carbamate] | > 1000 | ≤ 10
[2H]C([2H])([2H])n1c(=O)n([C@@H]2CC[C@](C)(NC(C)=O)C2)c2cc(Nc3cc(C(C)(C)O)cc(-c4ncc(Cl)s4)n3)ncc21 [Example 136, N-((1S,3R)-3-(6-((6-(5-Chlorothiazol-2-yl)-4-(2-hydroxypropan-2-yl)pyridin-2-yl)amino)-3-(methyl-d3)-2-oxo-2,3-dihydro-1H-imidazo[4,5-c]pyridin-1-yl)-1-methylcyclopentyl)acetamide] | > 1000 | ≤ 10
[2H]C([2H])([2H])NC(=O)C12CCC(n3c(=O)n(C([2H])([2H])[2H])c4cnc(Nc5cc(C(C)(C)O)cc(-c6ncc(C(F)(F)F)s6)n5)cc43)(CC1)CC2 [Example 137, 4-(6-((4-(2-Hydroxypropan-2-yl)-6-(5-(trifluoromethyl)thiazol-2-yl)pyridin-2-yl)amino)-3-(methyl-d3)-2-oxo-2,3-dihydro-1H-imidazo[4,5-c]pyridin-1-yl)-N-(methyl-d3)bicyclo[2.2.2]octane-1-carboxamide] | > 1000 | ≤ 10
[2H]C([2H])([2H])n1c(=O)n(C23CCC(C(=O)NC4CC4)(CC2)CC3)c2cc(Nc3cc(C(C)(C)O)cc(-c4ncc(C(F)(F)F)s4)n3)ncc21 [Example 138, N-Cyclopropyl-4-(6-((4-(2-hydroxypropan-2-yl)-6-(5-(trifluoromethyl)thiazol-2-yl)pyridin-2-yl)amino)-3-(methyl-d3)-2-oxo-2,3-dihydro-1H-imidazo[4,5-c]pyridin-1-yl)bicyclo[2.2.2]octane-1-carboxamide] | > 1000 | ≤ 10
[2H]C([2H])([2H])n1c(=O)n(C23CCC(C(N)=O)(CC2)CC3)c2cc(Nc3cc(C(C)(C)O)cc(-c4ncc(C(F)(F)F)s4)n3)ncc21 [Example 139, 4-(6-((4-(2-Hydroxypropan-2-yl)-6-(5-(trifluoromethyl)thiazol-2-yl)pyridin-2-yl)amino)-3-(methyl-d3)-2-oxo-2,3-dihydro-1H-imidazo[4,5-c]pyridin-1-yl)bicyclo[2.2.2]octane-1-carboxamide] | > 1000 | ≤ 10
[2H]C([2H])([2H])n1c(=O)n(C23CCC(NC(C)=O)(CC2)CC3)c2cc(Nc3cc(C(C)(C)O)cc(-c4ncc(C(F)(F)F)s4)n3)ncc21 [Example 140, N-(4-(6-((4-(2-Hydroxypropan-2-yl)-6-(5-(trifluoromethyl)thiazol-2-yl)pyridin-2-yl)amino)-3-(methyl-d3)-2-oxo-2,3-dihydro-1H-imidazo[4,5-c]pyridin-1-yl)bicyclo[2.2.2]octan-1-yl)acetamide] | > 1000 | ≤ 10
[2H]C([2H])([2H])n1c(=O)n(C23CCC(C(N)=O)(CC2)C3)c2cc(Nc3cc(C(C)(C)O)cc(-c4ncc(C(F)(F)F)s4)n3)ncc21 [Example 141, 4-(6-((4-(2-Hydroxypropan-2-yl)-6-(5-(trifluoromethyl)thiazol-2-yl)pyridin-2-yl)amino)-3-(methyl-d3)-2-oxo-2,3-dihydro-1H-imidazo[4,5-c]pyridin-1-yl)bicyclo[2.2.1]heptane-1-carboxamide] | > 1000 | ≤ 10
[2H]C([2H])([2H])n1c(=O)n(C23CCC(NC(C)=O)(CC2)C3)c2cc(Nc3cc(C(C)(C)O)cc(-c4ncc(C(F)(F)F)s4)n3)ncc21 [Example 142, N-(4-(6-((4-(2-Hydroxypropan-2-yl)-6-(5-(trifluoromethyl)thiazol-2-yl)pyridin-2-yl)amino)-3-(methyl-d3)-2-oxo-2,3-dihydro-1H-imidazo[4,5-c]pyridin-1-yl)bicyclo[2.2.1]heptan-1-yl)acetamide] | > 1000 | ≤ 10
[2H]C([2H])([2H])n1c(=O)n([C@@H]2CC[C@](C)(NC(=O)CC)C2)c2cc(Nc3cc(C(C)(C)O)cc(-c4ncc(C(F)(F)F)s4)n3)ncc21 [Example 143, N-((1S,3R)-3-(6-((4-(2-Hydroxypropan-2-yl)-6-(5-(trifluoromethyl)thiazol-2-yl)pyridin-2-yl)amino)-3-(methyl-d3)-2-oxo-2,3-dihydro-1H-imidazo[4,5-c]pyridin-1-yl)-1-methylcyclopentyl)propionamide] | > 1000 | ≤ 10
[2H]C([2H])([2H])n1c(=O)n([C@@H]2CC[C@](C)(NC(C)=O)C2)c2cc(Nc3cc(C(C)(C)O)cc(-c4cnc(C(F)(F)F)s4)n3)ncc21 [Example 146, N-((1S,3R)-3-(6-((4-(2-Hydroxypropan-2-yl)-6-(2-(trifluoromethyl)thiazol-5-yl)pyridin-2-yl)amino)-3-(methyl-d3)-2-oxo-2,3-dihydro-1H-imidazo[4,5-c]pyridin-1-yl)-1-methylcyclopentyl)acetamide] | > 1000 | ≤ 10
[2H]C([2H])([2H])n1c(=O)n([C@@H]2CC[C@@]([2H])(NC(=O)OC)C2)c2cc(Nc3cc(C(C)(C)O)cc(-c4ncc(C(O)(C(F)(F)F)C(F)(F)F)s4)n3)ncc21 [Example 147, Methyl ((1R,3R)-3-(6-((6-(5-(1,1,1,3,3,3-hexafluoro-2-hydroxypropan-2-yl)thiazol-2-yl)-4-(2-hydroxypropan-2-yl)pyridin-2-yl)amino)-3-(methyl-d3)-2-oxo-2,3-dihydro-1H-imidazo[4,5-c]pyridin-1-yl)cyclopentyl-1-d)carbamate] | > 1000 | ≤ 10
[2H]C([2H])([2H])n1c(=O)n([C@@H]2CC[C@@]([2H])(NC(=O)OC)C2)c2cc(Nc3cc(C)cc(-c4ncc(C(C)(C)O)s4)n3)ncc21 [Example 148, Methyl ((1R,3R)-3-(6-((6-(5-(2-hydroxypropan-2-yl)thiazol-2-yl)-4-methylpyridin-2-yl)amino)-3-(methyl-d3)-2-oxo-2,3-dihydro-1H-imidazo[4,5-c]pyridin-1-yl)cyclopentyl-1-d)carbamate] | > 1000 | ≤ 10
[2H]C([2H])([2H])n1c(=O)n([C@@H]2CC[C@@]([2H])(NC(=O)OC)C2)c2cc(Nc3cc(C)c(F)c(-c4ncc(C(C)(C)O)s4)n3)ncc21 [Example 149, Methyl ((1R,3R)-3-(6-((5-fluoro-6-(5-(2-hydroxypropan-2-yl)thiazol-2-yl)-4-methylpyridin-2-yl)amino)-3-(methyl-d3)-2-oxo-2,3-dihydro-1H-imidazo[4,5-c]pyridin-1-yl)cyclopentyl-1-d)carbamate] | > 1000 | ≤ 10
[2H]C([2H])([2H])c1cc(Nc2cc3c(cn2)n(C([2H])([2H])[2H])c(=O)n3[C@@H]2CC[C@@]([2H])(NC(=O)OC)C2)nc(-c2ncc(C(C)(C)O)s2)c1 [Example 150, Methyl ((1R,3R)-3-(6-((6-(5-(2-hydroxypropan-2-yl)thiazol-2-yl)-4-(methyl-d3)pyridin-2-yl)amino)-3-(methyl-d3)-2-oxo-2,3-dihydro-1H-imidazo[4,5-c]pyridin-1-yl)cyclopentyl-1-d)carbamate] | > 1000 | ≤ 10
